Measurements reported in PubChem BioAssay (NCI).
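1) Cells in 96-well plates. 2) Compound, 48 h, 5 concentrations. 3) Linear interpolation between surrounding doses. 4) Unreached endpoint = highest concentration. TGI: concentration producing complete growth inhibition.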

Legend:
Test in all cases: NCI tumour cell line growth inhibition, 48 h
MCF7 breast = tested on: MCF7 breast
NCI/ADR-RES ovarian = tested on: NCI/ADR-RES ovarian
CAKI-1 renal = tested on: CAKI-1 renal
MALME-3M melanoma = tested on: MALME-3M melanoma
COLO 205 colon = tested on: COLO 205 colon
SK-MEL-5 melanoma = tested on: SK-MEL-5 melanoma
UO-31 renal = tested on: UO-31 renal
IGROV1 ovarian = tested on: IGROV1 ovarian
UACC-257 melanoma = tested on: UACC-257 melanoma
A549 NSCLC = tested on: A549 NSCLC
M14 melanoma = tested on: M14 melanoma
NCI-H226 lung = tested on: NCI-H226 lung
MDA-MB-435 = tested on: MDA-MB-435
NCI-H522 lung = tested on: NCI-H522 lung
SF-295 CNS = tested on: SF-295 CNS
786-0 renal = tested on: 786-0 renal
LOX IMVI melanoma = tested on: LOX IMVI melanoma
OVCAR-4 ovarian = tested on: OVCAR-4 ovarian
T-47D breast = tested on: T-47D breast

SMILES | TGI (MCF7 breast) [µM] | TGI (NCI/ADR-RES ovarian) [µM] | TGI (CAKI-1 renal) [µM] | TGI (MALME-3M melanoma) [µM] | TGI (COLO 205 colon) [µM] | TGI (SK-MEL-5 melanoma) [µM] | TGI (UO-31 renal) [µM] | TGI (IGROV1 ovarian) [µM] | TGI (UACC-257 melanoma) [µM] | TGI (A549 NSCLC) [µM] | TGI (M14 melanoma) [µM] | TGI (NCI-H226 lung) [µM] | TGI (MDA-MB-435) [µM] | TGI (NCI-H522 lung) [µM] | TGI (SF-295 CNS) [µM] | TGI (786-0 renal) [µM] | TGI (LOX IMVI melanoma) [µM] | TGI (OVCAR-4 ovarian) [µM] | TGI (T-47D breast) [µM]
N#Cc1c(C#N)c(-c2ccccc2)n(Cc2ccccc2)c1N | > 100 | > 100 | > 100 | > 100 | > 100 | > 100 | > 100 | > 100 | > 100 | > 100 | > 100 | > 100 | > 100 | > 100 | > 100 | > 100 | > 100 | > 100 | > 100
CC(=O)N1c2ccccc2C2=NN(C)C(=N)SC21 (stereo not given) | > 100 | > 100 |  | > 100 | > 100 |  | > 100 |  | > 100 | > 100 | > 100 | > 100 | > 100 | > 100 | > 100 | > 100 | > 100 | > 100 | > 100
O=C(O)CCO/N=C1/C(c2c(O)[nH]c3ccccc23)=Nc2ccccc21 | > 100 | > 100 | 63.8 | > 100 | 35.1 | 27.3 | 38.3 | > 100 | > 100 | > 100 | > 100 |  | > 100 | > 100 | > 100 | 94.8 | 44.8 | > 100 | 72.6
N#CCCN(CCC#N)c1ccc(C(N=Nc2ccc(Cl)cc2)=Nc2ccccc2)cc1 | 28.2 | 24.2 | 26.1 |  | 12.4 | 5.13 | 21.3 | 24.6 | 20.8 | 29.1 | 26.9 | 31.9 | 27.5 | 30.4 | 12 | 28 |  | 26 | 27.2
CC[C@H](C)C1=C(OC(C)=O)[N@+]2([O-])Oc3ccc(-c4c(O)c(O)c(-c5ccc(OC(C)=O)cc5)c(OC(C)=O)c4OC(C)=O)cc3O[C@]2([C@@H](C)CC)C(=O)N1O | > 50 | > 50 | > 50 | 46.6 | > 50 | > 50 | > 50 | 44.7 | > 50 | > 50 | > 50 |  | > 50 | 22.2 | > 50 | 43.2 | > 50 | 26.9 | 37.7
Cn1c2c(c3ccccc31)CCN=C2C1CCCOC1=O (stereo not given) | > 100 | > 100 | > 100 | > 100 | > 100 | > 100 | > 100 | > 100 | > 100 | > 100 | > 100 | > 100 | > 100 | > 100 |  | > 100 | > 100 | > 100 | > 100
Cn1nc2ccc([N+](=O)[O-])cc2[n+]1[O-] | > 100 | > 100 | > 100 | > 100 | > 100 | > 100 | > 100 | > 100 | > 100 | > 100 | > 100 | > 100 | > 100 | > 100 | > 100 | > 100 |  | > 100 | > 100
C=C1[C@H]2O[C@H]2[C@@H](OC(C)=O)[C@@]2(C)[C@@H](OC(C)=O)C[C@@H](OC(=O)CCC)[C@@](C)(O)[C@@H]2[C@@H](OC(C)=O)[C@]2(O)[C@@H](C)C(=O)O[C@H]2[C@H]1Cl | > 100 | > 100 | > 100 | > 100 | > 100 | > 100 | > 100 |  | > 100 | > 100 | > 100 | 0.818 | > 100 | > 100 | > 100 | > 100 |  | > 100 | > 100
c1csc(-c2nccc3c2[nH]c2ccccc23)c1 | 20.8 | 54.8 | 71.5 | 47.2 | 28.9 | 31.4 |  | 37.4 | 35.7 | 49.2 | 31.6 | 32 | 32.2 | 41.5 | 34.9 | 32.9 | 39.7 | 55.1 | 63.2
COC1=N[C@H](C(C)C)C(OC)=N[C@H]1Cc1ccc(C[C@@H]2N=C(OC)[C@@H](C(C)C)N=C2OC)s1 | 59.4 | > 100 | > 100 | > 100 | > 100 | 47.8 | > 100 | > 100 | 97.1 | > 100 | > 100 |  | > 100 | 63.2 | > 100 | > 100 | > 100 | > 100 | 38.9
Cc1ccc(S(=O)(=O)NC(=O)Nc2cccc(S(N)(=O)=O)c2)cc1 | > 100 | > 100 | > 100 | > 100 | > 100 | > 100 | > 100 | > 100 |  | > 100 | > 100 | > 100 | > 100 | > 100 | > 100 | > 100 | > 100 | > 100 | > 100
N#Cc1cc2c(cc1C#N)/C(=N\c1cccc(N)n1)N=C2Nc1cccc(N)n1 | > 100 | > 100 | 34.1 | 84.1 | 51.9 | 22.1 | 47 | > 100 | > 100 | > 100 | 34.1 | > 100 | 59.7 | 22.6 | > 100 | 30.6 | > 100 |  | > 100
O=c1[nH]nc(-c2ccccc2)n1/N=C/c1ccco1 | > 100 | > 100 | > 100 | > 100 | > 100 | > 100 | > 100 | > 100 | > 100 | > 100 | > 100 |  | > 100 | > 100 | > 100 | > 100 | > 100 | > 100 | > 100
CCOC(=O)c1nc2ccccc2nc1NCc1ccc(OC)c(OC)c1 | > 100 | > 100 | > 100 | > 100 | > 100 | > 100 | > 100 | > 100 | > 100 | > 100 |  | > 100 | > 100 | > 100 | > 100 | > 100 | > 100 | > 100 | > 100
COc1ccc2c(c1)c1c(n2CCN2CCOCC2)-c2cccc(OC)c2CC1 | 77.3 | > 100 | > 100 | 66.3 | 28.5 | > 100 | > 100 | > 100 | > 100 | > 100 | > 100 | 52.9 | > 100 | 89 | > 100 | > 100 |  | > 100 | > 100
CNCCN[C@@H]1c2cc3c(cc2[C@@H](c2cc(OC)c(O)c(OC)c2)[C@H]2C(=O)OC[C@@H]21)OCO3 | > 53.3 | > 100 | 6.86 | 1.83 | 12 | 1.16 | 4.96 | 2.63 | 7.61 |  | 4.68 | 0.686 | 6.32 | 1.93 | 1.07 | 0.487 | 1.35 | > 100 | 2.6
CC(C)=NNc1snnc1C(N)=O | > 100 | > 100 | > 100 | > 100 | > 100 | > 100 | > 100 | > 100 | > 100 | > 100 | > 100 | > 100 | > 100 | > 100 | > 100 | > 100 | > 100 |  | > 100
COc1ccc2c(c1)CC1COc3cc(OC)ccc3C1O2 (stereo not given) | > 100 | > 100 | > 100 | > 100 | > 100 | > 100 | > 100 | > 100 | > 100 | > 100 | > 100 | > 100 | > 100 | > 100 | > 100 | > 100 | > 100 |  | > 100
Cc1c[nH]c(C(=O)O)c1-c1cccn1-c1ccc(Cl)cc1[N+](=O)[O-] | > 100 | > 100 | > 100 |  | > 100 | > 100 | > 100 | > 100 | > 100 | > 100 | > 100 | > 100 | > 100 | > 100 | > 100 | > 100 | > 100 | > 100 | > 100
CCC(=O)NI1OC(=O)c2ccccc21 | > 100 | > 100 | 55.2 |  | > 100 | > 100 | > 100 | > 100 | > 100 | > 100 | > 100 | > 100 | > 100 | 48.8 | > 100 | > 100 | > 100 | > 100 | > 100
CCOc1ccccc1NC(=O)C(=O)C(/C(=N/N)C(=O)OC)c1nc2ccc([N+](=O)[O-])cc2[nH]c1=O (stereo not given) | > 100 | > 100 | > 100 | > 100 |  | > 100 |  | > 100 | > 100 | > 100 | > 100 | > 100 | > 100 | > 100 | > 100 | > 100 | > 100 | > 100 | > 100
CCN(CC)Cc1ccccc1CC(=O)N1c2ccccc2C(=O)Nc2cccnc21 | > 100 | > 100 | > 100 | > 100 | > 100 | > 100 |  | > 100 | > 100 | > 100 | > 100 | > 100 | > 100 | > 100 | > 100 | > 100 | > 100 | > 100 | > 100
O=C1CNC(=O)/C(=C/c2c[nH]c3ccccc23)N1 | > 100 | > 100 | > 100 | > 100 |  | > 100 | > 100 | > 100 | > 100 | > 100 | > 100 | > 100 | > 100 | > 100 | > 100 | > 100 | > 100 | > 100 | > 100
Cn1c(=O)c2sc3c4sc5c(=O)n(C)c6ccccc6c5c4sc3c2c2ccccc21 | > 100 | > 100 | > 100 | > 100 | > 100 | > 100 | > 100 | > 100 | > 100 | > 100 | > 100 | > 100 | > 100 | > 100 |  | > 100 |  | > 100 | > 100
COC(=O)[C@H](Cc1ccccc1)NC(=O)N(CCC#N)CCCCN(CCC#N)C(=O)N[C@@H](Cc1ccccc1)C(=O)OC | > 100 | > 100 | > 100 | > 100 | > 100 | > 100 | > 100 |  | > 100 | > 100 | > 100 | > 100 | > 100 | > 100 | > 100 | > 100 | > 100 | > 100 | > 100
